Test results reported in patent US10106502B2, “Direct inhibitors of Keap1-Nrf2 interaction as antioxidant inflammation modulators” (Rutgers, The State University of New Jersey, priority 2011, dated 2018).

Assays:
[1] = target: T1, Keap1 Kelch domain (Homo sapiens, UniProt Q14145); test: FP assay, dose-response retest of HTS hits; type: binding; design: Human Keap1 Kelch domain protein was cloned into expression vector pET15b; inferred from vector pET15b and Ni-NTA purification) (N); made in house; host or cells: E. coli BL21 (DE3)
T1 sequence (Q14145 321-609 limits assumed): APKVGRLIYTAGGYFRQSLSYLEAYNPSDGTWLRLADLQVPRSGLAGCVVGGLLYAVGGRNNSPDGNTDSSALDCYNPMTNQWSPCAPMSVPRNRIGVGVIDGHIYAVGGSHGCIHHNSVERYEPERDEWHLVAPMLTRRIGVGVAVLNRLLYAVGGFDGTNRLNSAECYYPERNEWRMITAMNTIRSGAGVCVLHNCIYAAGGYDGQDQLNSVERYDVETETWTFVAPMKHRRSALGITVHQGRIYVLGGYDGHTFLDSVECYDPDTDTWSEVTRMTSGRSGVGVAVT
Description: Human Keap1 Kelch domain protein was cloned into expression vector pET15b and transformed into E. coli BL21 (DE3) strain. The protein was purified through Ni-NTA affinity column. Purified protein was stored in the buffer containing 20 mM HEPES (pH7.4), 5 mM DTT at −80° C.
2) 60 mL of 8 μM Ac-9mer-Nrf2 was prepared by taking 0.48 mL of 1 mM Ac-9mer-Nrf2 in 100% DMSO in 60 mL FP buffer 3) 500 mL of 400 nM Keap1 Kelch domain was prepared by taking 9 mL of 0.75 mg/mL Keap1 Kelch domain in 500 mL FP buffer.
10 nM FITC-9mer-Nrf2-NH2, 100 nM Kelch Kelch domain.
The first of these assays is an FP assay that uses a fluorescently labeled Nrf2 peptide amide as the probe and directly measures the displacement of fluorescent probe from the Nrf2-binding site of Keap1 Kelch domain by inhibitors via changes in fluorescence anisotropy. […] The second of the fluorescence-based assays is a time-resolved fluorescence energy transfer (TR-FRET) assay which uses an in situ labeling method we recently developed to attach a lanthanide chelate to Keap1 Kelch domain as the FRET donor and fluorescein-labeled Nrf2 peptide as the acceptor. One advantage of the TR-FRET assay is that it is less susceptible to compound interference than an FP assay.

[2] = tested on: CellSensor® ARE-bla Hep G2 cell line; test: cell-based ARE β-lactamase reporter assay; design: species or system human
[3] = target: T1, Keap1 Kelch domain; test: SPR-based solution competition assay; type: binding; design: 40 nM of Keap1 Kelch domain was incubated in the presence of test compounds; inferred from vector pET15b and Ni-NTA purification of the one described Kelch preparation) (N); made in house; host or cells: E. coli BL21 (DE3)
[4] = Keap1-retest in dose, 8-point FP dose-response of HTS hits

IC50 [1, 4] [µM] | SMILES | further results
26 | COc1ccc(C(C)=NNc2ccc([N+](=O)[O-])cc2S(=O)(=O)Nc2ccccc2C(=O)O)c(OC)c1 [BRD-K09114961-001-03-6, 2-[[[2-[2-[1-(2,4-dimethoxyphenyl)ethylidene]hydrazinyl]-5-nitrophenyl]sulfonyl]amino] benzoic acid] | –
135 | NS(=O)(=O)c1cc(C(=O)NC2CCSc3ccccc32)ccc1Cl (stereo not drawn) [BRD-A83249228-001-07-1, 3-(Aminosulfonyl)-4-chloro-N-(3,4-dihydro-2H-1-benzothiopyran-4-yl)benzamide] | –
91 | COc1cc(NS(=O)(=O)c2ccc(NC(=S)NC(=O)/C=C/c3ccco3)cc2)ncn1 [BRD-K42553821-001-05-9, 3-(2-Furanyl)-N-[[[4-[[(6-methoxy-4-pyrimidinyl)amino]sulfonyl]phenyl]amino]-thioxomethyl]-2-Propenamide] | –

Further lines, the compound ahead of its results:

SMILES | IC50 [1, 4] [µM] | further results
O=C1CCCc2oc3c(cc(NS(=O)(=O)c4ccc5c6c(cccc46)C(=O)N5)c4ccccc43)c21 [BRD-K91732811-001-06-9, 1,2-Dihydro-2-oxo-N-(7,8,9,10-tetrahydro-7-oxobenzo[b]naphtho[2,1-d]furan-5-yl) benz[cd]indole-6-sulfonamide] | 55 | –
Cc1ccc(S(=O)(=O)Nc2cc(C(C(=O)OC(C)C)C(=O)C(F)(F)F)c(O)c3ccccc23)c(C)c1 (racemic) [LH602, 4-[[(2,4-Dimethylphenyl)sulfonyl]amino]-1-hydroxy-α-(2,2,2-trifluoroacetyl)-2-naphthaleneacetic acid, 1-methylethyl ester] | 2.7 | IC50 ([1]; resynthesized compound): 3 µM; EC50 ([2]; Homo sapiens, HepG2, read-out: EC50 of ARE-inducing activity): 16 to 18 µM; Kd ([3]; Keap1 Kelch domain, SPR, read-out: Kd (Keap1 binding affinity)): 1.7 µM
CC1=C[C@@H]2c3cccc4[nH]cc(c34)C[C@H]2N(C)C1 [BRD-K56215778-001-06-9, 8,9-Didehydro-6,8-dimethyl-ergoline] | 37 | –
O=C(O)[C@@H]1CCCC[C@@H]1C(=O)N1CCc2ccccc2C1CN1C(=O)c2ccccc2C1=O (relative stereo) [LH601C/D] | – | ARE-inducing activity (in words) [2]: inactive
O=C(O)c1cc(N2C(=O)C=CC2=O)cc(N2C(=O)C=CC2=O)c1 [BRD-K11951445-001-04-1, 3,5-Bis(2,5-dihydro-2,5-dioxo-1H-pyrrol-1-yl)-benzoic acid] | 19 | –
O=C(O)[C@H]1CCCC[C@H]1C(=O)N1CCCCC1CN1C(=O)c2ccccc2C1=O (relative stereo) [LH641, cis-2-(2-((1,3-dioxoisoindolin-2-yl)methyl)piperidine-1-carbonyl)cyclohexane carboxylic acid] | – | binding to Keap1 Kelch domain (in words) [3]: complete loss of binding
